We go through 17 compounds from ChEMBL document CHEMBL1123495, “Assessment of a potential dopaminergic prodrug moiety in several ring systems” (1986).

Calls of active or inactive are those of the source. No cut-off for these calls is given here.

The species named for test [1] is Rattus norvegicus. Description: Compound was tested for induction of contralateral turning behavior with unilateral lesions of the nigrostriatal pathway in rat, activity expressed as potency ratio to apomorphine. The format is functional.
Test [2] is filed under the species Felis catus. Briefly: Compound was tested for antagonism of apomorphine induced inhibition of the tachycardia produced by stimulation of the right cardioaccelerator nerve in cat. The test is classed as functional.
Test [3] deals with Felis catus. Briefly: Compound was tested for inhibition of chronotropic stimulation response on the cardioaccelerator nerve in cat at the concentration > 3.0 uM/kg; Inactive. The format is functional, organism-based.
Test [4] is filed under the species Rattus norvegicus. Description: Compound was tested for induction of contralateral turning behavior with unilateral lesions of the nigrostriatal pathway in rat by haloperidol; Significant at p< 0.05. The test is classed as functional, organism-based.
The species named for test [5] is Felis catus. Description: Compound was tested for inhibition of chronotropic stimulation response on the cardioaccelerator nerve in cat. To be noted: read-out: ID50 (the source's name). The test is classed as functional.
Test [6] deals with Rattus norvegicus. Description: Compound was tested for induction of contralateral turning behavior with unilateral lesions of the nigrostriatal pathway in rat, activity expressed as potency ratio to apomorphine; Inactive up to 12.19 umol/kg. The test is classed as functional, organism-based.
The next test concerns Dopamine receptor. The note with it: Felis catus.
The subject of test [7] is Rattus norvegicus. Briefly: Compound was tested for induction of contralateral turning behavior with unilateral lesions of the nigrostriatal pathway in rat, activity expressed as potency ratio to apomorphine; Inactive in inducing turns up to 12.1 umol/kg. The format is functional, organism-based.
In test [8] the test system is Rattus norvegicus. Briefly: Compound was tested for induction of contralateral turning behavior with unilateral lesions of the nigrostriatal pathway in rat, activity expressed as potency ratio to apomorphine; Inactive up to 13.3 umol/kg. The test is classed as functional, organism-based.
The test system of test [9] is Rattus norvegicus. Briefly: Compound was tested for induction of contralateral turning behavior with unilateral lesions of the nigrostriatal pathway in rat, activity expressed as potency ratio to apomorphine; Inactive up to 11.7 umol/kg. The format is functional, organism-based.
For test [10], the system named is Rattus norvegicus. Briefly: Compound was tested for induction of contralateral turning behavior with unilateral lesions of the nigrostriatal pathway in rat, activity expressed as potency ratio to apomorphine; Inactive up to 12.3 umol/kg. The format is functional, organism-based.
Test [11] deals with Rattus norvegicus. Description: Compound was tested for induction of contralateral turning behavior with unilateral lesions of the nigrostriatal pathway in rat, activity expressed as potency ratio to apomorphine; Inactive up to 16.9 umol/kg. The test is classed as functional, organism-based.
Test [12] is filed under the species Rattus norvegicus. Description: Compound was tested for induction of contralateral turning behavior with unilateral lesions of the nigrostriatal pathway in rat by haloperidol; NS= Not significant. The format is functional, organism-based.
The subject of test [13] is Rattus norvegicus. Briefly: Compound was tested for induction of contralateral turning behavior with unilateral lesions of the nigrostriatal pathway in rat, activity expressed as potency ratio to apomorphine; Inactive up to 13.9 umol/kg. The format is functional, organism-based.

`CCCN1CCC[C@H]2c3ccc(C)c(O)c3CC[C@@H]21`: the Potency ratio in the test filed under Rattus norvegicus [1] was determined as 0.68. The compound also came in with an AD50 in the test filed under Felis catus [2] of 0.44 µM/kg. Further, the ID50 result in the test on Felis catus [3] was “inactive”.

For the compound `CN1CCc2cccc3c2[C@H]1Cc1ccc(O)c(O)c1-3` [APOMORPHINE], the Antagonism result in the test listed under Rattus norvegicus [4] is “Active”. Further, in the test filed under Felis catus [5], the ED50 was determined as 0.022 µmol/kg.

With `CCCN(CCC)CCc1ccc(CO)c(O)c1`, the ID50 result in the test with Felis catus [3] is “inactive”. Further, in the test on Rattus norvegicus [6], the Potency ratio entry was “inactive”. For the same compound, the AD50 entry in the test with Dopamine receptor is “inactive”.

On to `CCCN(CCC)C1CCc2c(ccc(C)c2O)C1` (centres undefined), for which, in the test listed under Rattus norvegicus [1], the Potency ratio was 0.39. The ED50 in the test listed under Felis catus [5] is 0.06 µmol/kg. Moreover, the AD50 result in the test on Dopamine receptor was “inactive”.

For `CCCN(CCC)C1Cc2ccc(CO)c(O)c2C1` (centres undefined), the Potency ratio in the test filed under Rattus norvegicus [1] is given as 0.33. In addition, the Antagonism result in the test listed under Rattus norvegicus [4] was “Active”. The ED50 in the test filed under Felis catus [5] came to 0.12 µmol/kg. Besides, the AD50 result in the test on Dopamine receptor is “inactive”.

In the case of `CCCN1CCC[C@H]2c3ccc(CO)c(O)c3CC[C@@H]21`, the Potency ratio in the test filed under Rattus norvegicus [1] is given as 0.07. Besides, the ID50 result with Felis catus [3] was “inactive”. For the same compound, in the test listed under Rattus norvegicus [4], the Antagonism entry is “Active”. Further, the AD50 result in the test with Dopamine receptor was “inactive”.

As for `CCCN(CCC)C1CCc2c(ccc(C(=O)O)c2O)C1` (centres undefined), in the test with Felis catus [3], the ID50 entry was “inactive”. Moreover, the Potency ratio result in the test with Rattus norvegicus [7] is “inactive”. In addition, the AD50 result with Dopamine receptor was “inactive”.

As to `CCCN(CCC)C1CCc2c(ccc(C=O)c2O)C1` (centres undefined), the Potency ratio in the test listed under Rattus norvegicus [1] was determined as 0.07. The ED50 in the test filed under Felis catus [5] is 0.13 µmol/kg. Moreover, the AD50 entry with Dopamine receptor is “inactive”.

As for `CCCN(CCC)CCc1ccc(C=O)c(O)c1`, the ID50 entry with Felis catus [3] was “inactive”. Further, the Antagonism entry in the test filed under Rattus norvegicus [4] is “Active”. In the test on Dopamine receptor, the AD50 entry was “inactive”. Moreover, the Potency ratio entry in the test on Rattus norvegicus [8] was “inactive”.

Turning to `CCCN(CCC)C1CCc2c(ccc(CO)c2O)C1` (centres undefined), the Potency ratio in the test listed under Rattus norvegicus [1] is on record as 0.93. For the same compound, in the test filed under Felis catus [5], the ED50 is 0.03 µmol/kg. In the test with Dopamine receptor, the AD50 result is “inactive”.

As for `CCCN(CCC)C1Cc2ccc(C=O)c(O)c2C1` (centres undefined), the ID50 entry in the test with Felis catus [3] is “inactive”. The AD50 result in the test on Dopamine receptor is “inactive”. Further, the Potency ratio result in the test with Rattus norvegicus [9] is “inactive”.

Regarding `CCCN(CCC)C1Cc2ccc(C(=O)O)c(O)c2C1` (centres undefined), in the test listed under Felis catus [5], the ED50 worked out at 3.18 µmol/kg. Besides, the AD50 entry in the test with Dopamine receptor is “inactive”.

On to `CCCN1CCC[C@H]2c3ccc(C(=O)O)c(O)c3CC[C@@H]21`, for which the ID50 result in the test with Felis catus [3] was “inactive”. In addition, the Potency ratio result in the test with Rattus norvegicus [10] was “inactive”. In the test on Dopamine receptor, the AD50 entry was “inactive”.

In the case of `CCCN(CCC)C1Cc2ccc(C)c(O)c2C1` (centres undefined), the Potency ratio in the test listed under Rattus norvegicus [1] was determined as 0.3. Further, the Antagonism result in the test filed under Rattus norvegicus [4] is “Active”. The ED50 in the test filed under Felis catus [5] is 0.89 µmol/kg. For the same compound, the AD50 result with Dopamine receptor was “inactive”.

On to `CCCN(CCC)CCc1ccc(C)c(O)c1`, for which the ID50 entry with Felis catus [3] was “inactive”. Also, in the test with Dopamine receptor, the AD50 result is “inactive”. The Potency ratio entry with Rattus norvegicus [11] is “inactive”.

For the compound `CCCN1CCC[C@H]2c3ccc(C=O)c(O)c3CC[C@@H]21`, in the test filed under Rattus norvegicus [1], the Potency ratio is 0.38. For the same compound, the ED50 in the test filed under Felis catus [5] was found to be 1.81 µmol/kg. In addition, in the test with Dopamine receptor, the AD50 entry is “inactive”. For the same compound, the Antagonism entry in the test filed under Rattus norvegicus [12] was “inactive”.

As to `CCCN(CCC)CCc1ccc(C(=O)O)c(O)c1`, in the test with Felis catus [3], the ID50 entry was “inactive”. In addition, the AD50 entry in the test on Dopamine receptor is “inactive”. The Potency ratio entry with Rattus norvegicus [13] was “inactive”.
